Results from US9789195B2, “Particulate drug delivery methods” (priority 2007, dated 2017).

Test system: PC-3 cells
Test: MTT assay in PC-3 cells, 24 hr incubation
Type: cell-based
Settings: Homo sapiens, NCs of similar sizes (~100 nm)
Description: Characterization and Evaluation of Ptxl-PLA NC: NC sizes were characterized by a ZetaPALS dynamic light scattering detector (Brookhaven Instruments, Holtsville, N.Y., USA) or by SEM. The resulting NCs were purified by ultrafiltration; their in vitro toxicities were then evaluated using MTT assay in PC-3 cells (24 hr incubation at 37 C). To determine the release kinetics of Ptxl-PLA, a PBS solution of NCs was equally divided into several portions and then incubated at 37 C. At scheduled time, the release study was terminated. DMF solution was added to dissolve all precipitation. All the samples were then dried, re-dissolved in DCM and reacted with Bu4NBH4 for 1.5 hours. A drop of acetic acid was added into the solution. The solution was stirred for 20 min before the solvent was evaporated. The residual solid was reconstituted in acetonitrile for RP HPLC analysis (Curosil, 250×4.6 mm, 5μ; Phenomenex, Torrence, Calif., USA).
PC-3 cells were plated in a 96-well plate for 24 h (10,000 cells per well). On the day of experiments, cells were washed with prewarmed PBS and different concentration of fresh prepared NCs (prepared in 1×PBS) was added. The control cells were incubated with medium. […] The resulting crystals were dissolved and final cell viability was assessed colorimetrically by microplate reader at 655 nm. […]

CC(=O)O[C@H]1C(=O)[C@@]2(C)[C@H]([C@H](OC(=O)c3ccccc3)[C@]3(O)C[C@H](OC(=O)[C@H](O)[C@@H](NC(=O)c4ccccc4)c4ccccc4)C(C)=C1C3(C)C)[C@]1(OC(C)=O)CO[C@@H]1C[C@@H]2O [Ptxl, paclitaxel]
IC50: 87 nM
